Results as given in patent US20220378923A1, “BET DEGRADER” (KYOWA KIRIN CO., LTD., priority 2019, published 2022).

Experiments:
[1] = test system: MYC mRNA expression in SU-DHL-4 cells; assay: Suppressive effect on MYC mRNA expression (Test Example 2); format: cell-based, human; details: Homo sapiens, test compound 100 nmol/L, 6 hours, qRT-PCR corrected by ACTB, GAPDH, HPRT1, read-out: Suppression Rate of MYC mRNA Expression (%)
Protocol: The cells were passaged twice a week at a volume of 20-40 mL so as to maintain a cell concentration of 1×10^6 cells/mL or less. The cultured SU-DHL-4 cells were seeded at 6×10^5 cells/well in a transparent 6-well plate (Code No. 140675, Thermo Fisher Scientific). After seeding, the cells were precultured at 37° C. in a carbon dioxide gas incubator for 18 to 25 hours. […] At this time, the final concentration of DMSO was adjusted to be 0.1 vol %. After adding the test compound, the cells were cultured at 37° C. in a carbon dioxide gas incubator for 6 hours. Then, the cells were collected by centrifugation and used for extraction of mRNA. mRNA extraction from cells was performed using Maxwell® 16 LEV simplyRNA Purification Kits (Code No. AS1270, Promega). The mRNA recovery protocol was performed according to the manufacturer's recommended protocol attached to the kit. […] The cDNA conversion was performed, according to the manufacturer's recommended protocol attached to the kit, in 0.020 mL of the reaction solution, and GeneAmp® PCR System 9700 (Applied Biosystems) was used. The cDNA-converted sample was diluted 10-fold by adding 0.180 mL of RNase Free Water (Code No. 10977-023, Thermo Fisher Scientific) and used for quantitative real-time polymerase chain reaction (qRT-PCR). For the calibration curve of qRT-PCR, 0.08 mL of RNase Free Water was added to a cDNA sample using DMSO as a test compound for 5-fold dilution. Further, two 5-fold dilutions were prepared stepwise, and these three samples were used as the calibration curve samples. The following reagents were used for qRT-PCR: TaqMan Gene Expression Assays, Inventoried (Primer probe: Code No. 4331182, Thermo Fisher Scientific, Assay ID: (i) MYC: Hs00153408_m1, (ii) ACTB: Hs01060665_g1, (iii) GAPDH: Hs04420697_g1, (iv) HPRT1: […] Universal PCR Master Mix, no AmpEraseR UNG (Master Mix: Code No. 4367846, Thermo Fisher Scientific). Primer probe (0.001 mL), Master Mix (0.010 mL), water (0.004 mL) and the diluted cDNA sample (0.005 mL) were mixed, and qRT-PCR analysis was performed. For qRT-PCR analysis, QuantStudio 7 Flex (Thermo Fisher Scientific) or 7500 Fast Real-Time PCR (Applied Biosystems) was used to measure in Fast mode and analyze. […] Corrected MYC expression=A/B • A: MYC expression level • B: Geometric mean of expression levels of ACTB, GAPDH and HPRT1 Using the corrected values, the suppression rate of MYC expression for the wells to which the test compound was not added was calculated by the following formula. […] Corrected MYC expression level in a well containing test compound • D: Corrected MYC expression level in a well to which test compound was not added

SU-DHL-4 cells = assay: Inhibitory effect on cell viability in SU-DHL-4 cell line (Test Example 1); format: cell-based, human; details: Homo sapiens, 72 hours; for IC50: SU-DHL-4 (wild type) cells, calculated using the measurement results of test example 1, read-out: SU-DHL-4 WT IC50; for IC90: SU-DHL-4 cells, Cell Counting Kit-8, concentration showing 90% inhibition of cell viability, read-out: SU-DHL-4 Cell Viability Inhibition Rate IC90
In short: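 SU-DHL-4 cells were grown at 37° C. under 5% CO2 in RPMI1640 with 10 vol % heat-inactivated FBS plus penicillin/streptomycin, seeded and precultured for 18 to 25 hours, then exposed to test compound at 0.1 vol % DMSO for 72 hours. Viability was read with Cell Counting Kit-8 by absorbance at 450 nm.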

Compound | inhibition at 0.1 µM [1] | IC50 (SU-DHL-4 cells) | IC90 (SU-DHL-4 cells)
CCC(=O)N1c2ccccc2[C@H](Nc2ccc(NC(=O)CCCC(=O)Nc3ccc(C(=O)N4CCC(=O)Nc5ccccc54)cc3)cc2)C[C@@H]1C [Compound 16o, N^1-(4-(((2S,4R)-2-Methyl-1-propionyl-1,2,3,4-tetrahydroquinolin-4-yl)amino)phenyl)-N5-(4-(4-oxo-2,3,4,5-tetra hydro-1H-benzo[b][1,4]diazepine-1-carbonyl)phenyl)glutaramide] | 79.1% | 24800 pM | 80400 pM
CCC(=O)N1c2ccccc2[C@H](NCC23CCC(C(=O)N4CC(C(=O)Nc5ccc(N[C@@H]6C[C@H](C)N(C(=O)CC)c7ccccc76)cc5)C4)(CC2)CC3)C[C@@H]1C (relative stereo) [Compound 17o, 1-(4-((((2S,4R)-2-Methyl-1-propionyl-1,2,3,4-tetrahydroquinolin-4-yl)amino)methyl)bicyclo[2.2.2]octane-1-carbonyl)-N-(4-(((2S*,4R*)-2-methyl-1-propionyl-1,2,3,4-tetrahydroquinolin-4-yl)amino)phenyl)azetidine-3-carboxamide] | 97.1% | 780 pM | 2180 pM
CCC(=O)N1c2ccccc2[C@H](Nc2ccc(CNCc3cn(-c4ccc(N[C@@H]5C[C@H](C)N(C(=O)CC)c6ccccc65)cc4)nn3)cc2)C[C@@H]1C [Compound 5h, 1-((2S,4R)-2-Methyl-4-((4-((((1-(4-(((2S,4R)-2-methyl-1-propionyl-1,2,3,4-tetrahydroquinolin-4-yl)amino)phenyl)-1H-1,2,3-triazol-4-yl)methyl)amino)methyl)phenyl)amino)-3,4-dihydroquinolin-1(2H)-yl)propan-1-one] | 97.3% | 60 pM | 
CCC(=O)N1c2ccccc2[C@H](NCc2ccc(C(=O)N3CC(C(=O)Nc4ccc(N[C@@H]5C[C@H](C)N(C(=O)CC)c6ccccc65)cc4)C3)cc2)C[C@@H]1C (relative stereo) [Compound 10g, 1-(4-((((2S*,4R*)-2-Methyl-1-propionyl-1,2,3,4-tetrahydroquinolin-4-yl)amino)methyl)benzoyl)-N-(4-(((2S,4R)-2-methyl-1-propionyl-1,2,3,4-tetrahydroquinolin-4-yl)amino)phenyl)azetidine-3-carboxamide] | 97.2% | 910 pM | 
CCC(=O)N1c2ccccc2[C@H](Nc2ccc(CCCC(=O)Nc3ccc(N[C@@H]4C[C@H](C)N(C(=O)CC)c5ccccc54)cc3)cc2)C[C@@H]1C [Compound 5r, N,4-Bis(4-(((2S,4R)-2-methyl-1-propionyl-1,2,3,4-tetrahydroquinolin-4-yl)amino)phenyl)butanamide] | 96.7% | 530 pM | 
CCC(=O)N1c2ccccc2[C@H](Nc2ccc(-n3cc(CNC(=O)c4ccc(Cn5c(CC)cc6c5CCCC6=O)cc4)nn3)cc2)C[C@@H]1C [Compound 15f, 4-((2-Ethyl-4-oxo-4,5,6,7-tetrahydro-1H-indol-1-yl)methyl)-N-((1-(4-(((2S,4R)-2-methyl-1-propionyl-1,2,3,4-tetrahydroquinolin-4-yl)amino)phenyl)-1H-1,2,3-triazol-4-yl)methyl)benzamide] | 97.2% | 30 pM | 
CCC(=O)N1c2ccccc2[C@H](Nc2ccc(Cc3cnc4n3CCN(C(=O)c3ccc(N[C@@H]5C[C@H](C)N(C(=O)CC)c6ccccc65)cc3)C4)cc2)C[C@@H]1C [Compound 5q, 1-((2S,4R)-2-Methyl-4-((4-((7-(4-(((2S,4R)-2-methyl-1-propionyl-1,2,3,4-tetrahydroquinolin-4-yl)amino)benzoyl)-5,6,7,8-tetrahydroimidazo[1,2-a]pyrazin-3-yl)methyl)phenyl)amino)-3,4-dihydroquinolin-1(2H)-yl)propan-1-one] | 97.2% | 90 pM | 
